Experimental data as given in patent US9539176B2 (BAYER PHARMA AKTIENGESELLSCHAFT, priority 2012, dated 2017).

Assay: comparative stress test of the active coating suspension (60° C., 48 hours, HPLC)
Format: physicochemical
Description: The chemical stability of the coating suspension was verified by a comparative stress test: micronized candersartan cilexetil as a solid, an aqueous suspension of micronized candesartan cilexetil, and aqueous suspensions of micronized candesartan cilexetil together with Opadry II 85F19250 Clear in three different ratios were stored at 60° C. for 48 hours. The percentage of the stability indicating impurity Desethyl-Candesartan cilexetil was determined via HPLC. The same batch of micronized candesartan cilexetil has been used for all samples.

In the case of `CCOc1nc2cccc(C(=O)OC(C)OC(=O)OC3CCCCC3)c2n1Cc1ccc(-c2ccccc2-c2nnn[nH]2)cc1` (centres unmarked) [micronized candesartan cilexetil (solid), candesartan cilexetil], the “Desethyl-Candesartan cilexetil, start” value (start, before storage) is reported as 0.11% and the “Desethyl-Candesartan cilexetil, 48 hours” value (stored at 60° C. for 48 hours) is reported as 0.41%.
